Test results reported in patent US8785468B2, “Phenylalanine amide derivatives useful for treating insulin-related diseases and conditions” (Amgen Inc., priority 2009, dated 2014).
Structures can show the parent of a compound that is named as a salt.

Biological target: T1, human receptor found in pancreatic islet cells (Homo sapiens, UniProt Q7Z601)
T1 sequence (Q7Z601 1-462): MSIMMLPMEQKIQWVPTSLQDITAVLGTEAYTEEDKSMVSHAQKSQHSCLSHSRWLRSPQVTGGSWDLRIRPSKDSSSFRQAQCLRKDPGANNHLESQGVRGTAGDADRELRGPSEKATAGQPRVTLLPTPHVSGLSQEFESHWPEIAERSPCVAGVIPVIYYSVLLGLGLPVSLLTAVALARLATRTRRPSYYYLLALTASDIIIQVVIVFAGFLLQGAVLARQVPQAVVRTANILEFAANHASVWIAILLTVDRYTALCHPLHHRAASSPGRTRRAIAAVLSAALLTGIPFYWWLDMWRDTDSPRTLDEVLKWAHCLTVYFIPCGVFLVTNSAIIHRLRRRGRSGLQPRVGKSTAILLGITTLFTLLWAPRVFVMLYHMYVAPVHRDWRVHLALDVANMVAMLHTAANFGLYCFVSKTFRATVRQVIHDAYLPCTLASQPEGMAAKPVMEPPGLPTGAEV
Test: Activation of intracellular IP3 signaling in transfected cells (Activation Assay)
Type: cell-based
Settings: calculated from IP3 concentration measurements in cells transfected with the human receptor
Experimental: Table 12 provides exemplary compounds that were prepared and assessed, following protocols known to those of skilled in the art, for activation of intracellular inositol trisphosphate (IP3) signaling pathways that lead to elevation of intracellular calcium concentration. EC50 values provided in Table 12 were calculated from IP3 concentration measurements in cells transfected with a human receptor found in pancreatic islet cells, inter alia.

| Compound | EC50 [nM] |
| --- | --- |
| C[C@H](N[C@@H](Cc1ccccc1)C(=O)Nc1nnc(-c2ccncc2)s1)c1ccccn1 [Example 1.2, (S)-3-phenyl-2-((S)-1-(pyridin-2-yl)ethylamino)-N-(5-(pyridin-4-yl)-1,3,4-thiadiazol-2-yl)propanamide] | 100 to 1000 |
| Nc1nc(CN[C@@H](Cc2ccccc2)C(=O)Nc2nnc(-c3ccncc3)s2)cs1 [Example 1.3, (S)-2-((2-aminothiazol-4-yl)methylamino)-3-phenyl-N-(5-(pyridin-4-yl)-1,3,4-thiadiazol-2-yl)propanamide] | 100 to 1000 |
| C[C@H](N[C@@H](Cc1ccccc1)C(=O)Nc1nnc(-c2ccncc2)s1)c1cscn1 [Example 1.4] | 50 to 100 |
| O=C(Nc1nnc(-c2ccncc2)s1)[C@H](Cc1ccccc1)NCc1cscn1 [Example 1.5, (S)-3-phenyl-N-(5-(pyridin-4-yl)-1,3,4-thiadiazol-2-yl)-2-(thiazol-4-ylmethylamino)propanamide] | 50 to 100 |
| O=C(Nc1nnc(-c2ccncc2)s1)[C@H](Cc1cccc(F)c1)NCc1cscn1 [Example 1.6, (S)-3-(3-fluorophenyl)-N-(5-(pyridin-4-yl)-1,3,4-thiadiazol-2-yl)-2-(thiazol-4-ylmethylamino)propanamide] | 50 to 100 |
| O=C(Nc1nnc(-c2ccncc2)[nH]1)[C@H](Cc1ccccc1)NCc1cscn1 [Example 2, (S)-3-Phenyl-N-(5-(pyridin-4-yl)-4H-1,2,4-triazol-3-yl)-2-(thiazol-4-ylmethylamino)propanamide] | 1000 to 10000 |
| O=C(Nc1cc(-c2ccncc2)no1)[C@H](Cc1ccc(Cl)cc1)NCc1cscn1 [Example 3.1, (S)-3-(4-Chlorophenyl)-N-(3-(pyridin-4-yl)isoxazol-5-yl)-2-(thiazol-4-ylmethylamino)propanamide] | 100 to 1000 |
| O=C(O)CN[C@@H](Cc1ccc(F)cc1)C(=O)Nc1cc(-c2ccncc2)no1 [Example 3.2, (S)-2-(3-(4-Fluorophenyl)-1-oxo-1-(3-(pyridin-4-yl)isoxazol-5-ylamino)propan-2-ylamino)acetic acid] | < 50 |
| O=C(Nc1cc(-c2ccncc2)no1)[C@H](Cc1ccccc1)NCc1cscn1 [Example 3.3, (S)-3-Phenyl-N-(3-(pyridin-4-yl)isoxazol-5-yl)-2-(thiazol-4-ylmethylamino)propanamide] | 100 to 1000 |
| O=C(Nc1csc(-c2ccncc2)n1)[C@H](Cc1ccccc1)NCc1cscn1 [Example 4, (S)-3-Phenyl-N-(2-(pyridin-4-yl)thiazol-4-yl)-2-(thiazol-4-ylmethylamino)propanamide] | 100 to 1000 |
| O=C(Nc1cnc(-c2ccncc2)s1)[C@H](Cc1ccc(F)cc1)NCc1cscn1 [Example 5.2, (S)-3-(4-Fluorophenyl)-N-(2-(pyridin-4-yl)thiazol-5-yl)-2-(thiazol-4-ylmethylamino)propanamide] | 50 to 100 |
| O=C(Nc1cnc(-c2ccncc2)s1)[C@H](Cc1ccccc1)NCc1cscn1 [Example 5.3, (S)-3-Phenyl-N-(2-(pyridin-4-yl)thiazol-5-yl)-2-(thiazol-4-ylmethylamino)-propanamide] | 50 to 100 |
| O=C(Nc1cncc(-c2ccn[nH]2)c1)[C@H](Cc1ccccc1)NCc1cscn1 [Example 6, (2S)—N-(5-(1H-Pyrazol-5-yl)pyridin-3-yl)-3-phenyl-2-(thiazol-4-ylmethylamino)propanamide] | 100 to 1000 |
| O=C(Nc1cc(-c2ccncc2)n[nH]1)[C@H](Cc1ccccc1)NCc1cscn1 [Example 7, (S)-3-Phenyl-N-(3-(pyridin-4-yl)-1H-pyrazol-5-yl)-2-(thiazol-4-ylmethylamino)propanamide] | 50 to 100 |
| CNc1cc(-c2nnc(NC(=O)[C@H](Cc3ccccc3)NCc3cscn3)s2)ccn1 [Example 8.1] | < 50 |
| CNc1cc(-c2nnc(NC(=O)[C@H](Cc3ccc(F)cc3)NCc3cscn3)s2)ccn1 [Example 8.2, (2S)-3-(4-fluorophenyl)-N-(5-(2-(methylamine)pyridine-4-yl)-1,3,4-thiadiazol-2-yl)-2-(thiazol-4-ylmethylamino)propanamide] | 50 to 100 |
| CNc1nccc(-c2cc(NC(=O)[C@H](Cc3ccc(F)cc3)NCc3cscn3)n(C)n2)n1 [Example 9, (2S)-3-(4-fluorophenyl)-N-(1-methyl-3-(2-(methylamino)pyrimidin-4-yl)-1H-pyrazol-5-yl)-2-(thiazol-4-ylmethylamino)propanamide] | 100 to 1000 |

| Compound | EC50 [nM] |
| --- | --- |
| O=C(Nc1nccc(-c2ccncc2)n1)[C@H](Cc1ccccc1)NCc1cscn1 [Example 10, (S)-3-phenyl-N-(4-(pyridin-4-yl)pyrimidin-2-yl)-2-(thiazol-4-ylmethylamino)propanamide] | 100 to 1000 |
| COc1ncc(-c2ccncc2)cc1NC(=O)[C@H](Cc1ccccc1)NC1(c2ccccn2)CC1 [Example 11.1, (S)—N-(2-methoxy-5-(pyridin-4-yl)pyridin-3-yl)-3-phenyl-2-(1-(pyridin-2-yl)cyclopropylamino)propanamide] | < 50 |
| O=C(Nc1cccc(-c2cc[nH]n2)c1)[C@H](Cc1ccccc1)NCc1cscn1 [Example 12, (2S)—N-(3-(1H-pyrazol-3-yl)phenyl)-3-phenyl-2-(thiazol-4-ylmethylamino)propanamide] | 50 to 100 |
| O=C(Nc1cc(-c2ccncc2)ccc1O)[C@H](Cc1ccccc1)NCc1cscn1 [Example 13, (S)—N-(2-hydroxy-5-(pyridin-4-yl)phenyl)-3-phenyl-2-(thiazol-4-ylmethylamino)propanamide] | < 50 |
| COc1ncc(-c2ccn[nH]2)cc1NC(=O)[C@H](Cc1ccccc1)NC1(c2ccccn2)CC1 [Example 14.1, (2S)—N-(2-methoxy-5-(1H-pyrazol-5-yl)pyridin-3-yl)-3-phenyl-2-(1-(pyridin-2-yl)cyclopropylamino)propanamide] | 100 to 1000 |
| COc1ncc(-c2cc[nH]n2)cc1NC(=O)[C@H](Cc1ccccc1)NC1(c2cscn2)CC1 [Example 14.2] | 100 to 1000 |
| COc1ncc(-c2cc[nH]n2)cc1NC(=O)[C@H](Cc1ccccc1)NCc1cscn1 [Example 14.3, (2S)—N-(2-methoxy-5-(1H-pyrazol-3-yl)pyridin-3-yl)-3-phenyl-2-(thiazol-4-ylmethylamino)propanamide] | 50 to 100 |
| COc1ncc(-c2cn[nH]c2)cc1NC(=O)[C@H](Cc1ccccc1)NCc1ccccn1 [Example 15.2, (2S)—N-(2-methoxy-5-(1H-pyrazol-4-yl)pyridin-3-yl)-3-phenyl-2-(pyridin-2-ylmethylamino)propanamide] | 100 to 1000 |
| Cc1cc(-c2cc(NC(=O)[C@H](Cc3ccc(F)cc3)NCc3cscn3)n(C)n2)ccn1 [Example 16.1, (2S)-3-(4-Fluorophenyl)-N-(1-methyl-3-(2-methylpyridin-4-yl)-1H-pyrazol-5-yl)-2-(thiazol-4-ylmethylamino)propanamide] | < 50 |
| Cc1cc(-c2cc(NC(=O)[C@@H](N)Cc3ccc(F)cc3)n(C)n2)ccn1 [Example 16.1.F, (2S)-2-amino-3-(4-fluorophenyl)-N-(1-methyl-3-(2-methylpyridin-4-yl)-1H-pyrazol-5-yl)propanamide] | 100 to 1000 |
| Cc1cc(-c2cc(NC(=O)[C@H](Cc3ccc(F)cc3)NCC(=O)O)n(C)n2)ccn1 [Example 16.2, 2-((S)-3-(4-Fluorophenyl)-1-(1-methyl-3-(2-methylpyridin-4-yl)-1H-pyrazol-5-ylamino)-1-oxopropan-2-ylamino)acetic acid dihydrochloride] | 50 to 100 |
| Cn1nc(-c2ccncc2)cc1NC(=O)[C@H](Cc1ccccc1)NCc1cscn1 [Example 17.2, (S)—N-(1-Methyl-3-(pyridin-4-yl)-1H-pyrazol-5-yl)-3-phenyl-2-(thiazol-4-ylmethylamino)propanamide] | < 50 |
| Cn1nc(-c2ccncc2)cc1NC(=O)[C@H](Cc1ccccc1)NCc1ccccn1 [Example 17.3, (S)—N-(1-Methyl-3-(pyridin-4-yl)-1H-pyrazol-5-yl)-3-phenyl-2-(pyridin-2-ylmethylamino)propanamide] | 50 to 100 |
| Cn1nc(-c2ccncc2)cc1NC(=O)[C@H](Cc1ccccc1)NCc1ccc(F)cn1 [Example 17.4, (S)-2-((5-Fluoropyridin-2-yl)methylamino)-N-(1-methyl-3-(pyridin-4-yl)-1H-pyrazol-5-yl)-3-phenylpropanamide] | < 50 |
| Cn1nc(-c2ccncc2)cc1NC(=O)[C@H](Cc1ccc(F)cc1)NCc1cscn1 [Example 17.5, (S)-3-(4-Fluorophenyl)-N-(1-methyl-3-(pyridin-4-yl)-1H-pyrazol-5-yl)-2-(thiazol-4-ylmethylamino)propanamide] | < 50 |
| Cn1nc(-c2ccncc2)cc1NC(=O)[C@H](Cc1ccccc1)NCC1CC1 [Example 17.6, (S)-2-(Cyclopropylmethylamino)-N-(1-methyl-3-(pyridin-4-yl)-1H-pyrazol-5-yl)-3-phenylpropanamide] | 100 to 1000 |
| CNc1cc(-c2cc(NC(=O)[C@H](Cc3ccc(F)cc3)NCc3cscn3)[nH]n2)ccn1 [Example 18.1, (2S)-3-(4-Fluorophenyl)-N-(3-(2-(methylamino)pyridin-4-yl)-1H-pyrazol-5-yl)-2-(thiazol-4-ylmethylamino)propanamide] | < 50 |
